According to US20100279942A1, “METHODS FOR TREATING MOTOR NEURON DISEASE” (priority 2004, published 2010):

Assays:
[1] = system: F11 cells transformed with SOD1 mutant (A4T-SOD1, G85R-SOD1, G93R-SOD1) genes; assay: Neuronal cell death test, Trypan blue exclusion assay, F11 cells transformed with SOD1 mutant genes; format: cell-based, rat/mouse hybrid cell; conditions: for effect of kinase inhibitor on neuroprotective effect of ADNF: 100 nM ADNF, 10 nM wortmannin, 100 μM genistein, 50 μM PD98059, 20 μM SB203580, 1 μM AG490, 5 μM KN93, 10 μM HA1004, 72 hours
Protocol: F11 cell, the hybrid cell of rat embryonic day 13 (E13) primary cultured neuronal cell with mouse neuroblastoma NTG18 cell, was cultured in Ham's F-12 medium (Life Technologies, Gaithersburg, Md.) containing 18% FBS (Hyclone, Logan, Utah) and antibiotics as previously reported (Platika D, et al., 1985, Proc Natl Acad Sci USA 82: 3499-3503; Yamatsuji T, et al., 1996, Science 272: 1349-1352; Huang P, et al., 2000, Mol Hum Reprod 6: 1069-1078; and Niikura T, et al., 2001, J Neuroscience, 21: 1902-1910).
The F11 cells (7×10^4 cells/well, 6-well plate, 12- to 16-hour culture in Ham's F-12 (18% PBS) medium) were transformed with wild-type or SOD1 mutant (A4T, G85R, and G93R) genes by lipofection (0.5 μg of each SOD1 gene; 1 μl of LipofectAMINE; 2 μl of PLUS Reagent) under serum-free conditions for 3 hours and cultured for 2 hours in Ham's F-12 (18% PBS) medium. The medium was replaced by Ham's F-12 (10% PBS) in the presence or absence of ADNF. After 72 hours of the transformation, cell mortality was measured by Trypan blue exclusion assay as previously reported (Hashimoto Y, et al., 2001, J Neurosci 21: 9235-9245; and Hashimoto Y, et al, 2001, Proc Natl Acad Sci USA 98: 6336-6341). […]
Intracellular signaling by ADNF was examined. F11 cells were transformed with pEF-BOS or SOD1 mutant (A4T-SOD1, G85R-SOD1, or G93R-SOD1) cDNA and reacted with 10 nM wortmannin (PI3 kinase inhibitor), 100 μM genistein (tyrosine kinase inhibitor), 50 μM PD98059 (MEK inhibitor), 20 μM SB203580 (p38 MAPK inhibitor), 1 μM AG490 (JAK kinase inhibitor), 5 μM KN93 (calcium/calmodulin-dependent kinase inhibitor), or 10 μM HA1004 (protein kinase A inhibitor) in the presence or absence of 100 nM ADNF. After 72 hours of the transformation, cell mortality was measured by Trypan blue exclusion assay.
The effect of KN93 on the neuroprotective action of ADNF was examined. […] After 72 hours of the transformation, cell mortality was measured by Trypan blue exclusion assay. […]

SOD1 proteins = assay: Immunoblot analysis of SOD1 protein expression in transformed cells; format: cell-based, mouse and rat/mouse hybrid; conditions: KN93 or KN92 treatment; F11 cells
Protocol: Immunoblot analysis was conducted according to the previous report (Hashimoto Y, et al., supra, p. 6336-6341). To examine the protein expression of wild-type or SOD1 mutant genes, lysates from the cells transfected with each SOD1 gene were subjected to SDS-PAGE (20 μg/lane). After electrical blotting to a PVDF membrane, the membrane was blocked by a typical method and reacted with an anti-SOD1 antibody and then with a 1:5000-diluted horseradish peroxidase-conjugated anti-mouse IgG antibody (Bio-Rad Lab. Hercules, Calif., USA). The antibody-reactive bands were detected by ECL (Amersham Pharmacia Biotech, Uppsala, Sweden).

[2] = system: neuronal cell death caused by amyloid β; conditions: cited from earlier work
[3] = system: F11 cells transformed with SOD1 mutant (A4T-SOD1, G85R-SOD1, G93R-SOD1) genes; assay: Neuronal cell death test, Trypan blue exclusion assay, F11 cells transformed with SOD1 mutant genes; format: cell-based, rat/mouse hybrid cell; conditions: 10 pM ADNF8, 72 hours
[4] = system: neuronal cell death induced by SOD1 mutant genes; conditions: Hashimoto et al.; cited from earlier work

Compound: C[S+]([O-])c1ccc(-c2nc(-c3ccncc3)c(-c3ccc(F)cc3)[nH]2)cc1 (stereo not shown) [SB203580]
- effect of kinase inhibitor on neuroprotective effect of ADNF [1]: not affected

Compound: COc1ccc(S(=O)(=O)N(CCO)c2ccccc2CN(C)C/C=C/c2ccc(Cl)cc2)cc1 [KN93]
- inhibition of neuroprotective action of ADNF ([1]; 50 nM KN93, 100 fM ADNF): partially inhibited
- effect of kinase inhibitor on neuroprotective effect of ADNF [1]: inhibited
- inhibition of neuroprotective action of ADNF ([1]; 1 μM KN93, 100 fM ADNF): almost completely inhibited
- influence on cell mortality at the control level ([1]; KN93 at any of the concentrations (10 nM to 5 μM)): no influence
- protein expression of SOD1 mutant detected by immunoblot (SOD1 proteins): not affected

Compound: N#C/C(=C/c1ccc(O)c(O)c1)C(=O)NCc1ccccc1 [AG490]
- effect of kinase inhibitor on neuroprotective effect of ADNF [1]: not affected

Compound: NC(N)=NCCNS(=O)(=O)c1cccc2cnccc12 [HA1004]
- effect of kinase inhibitor on neuroprotective effect of ADNF [1]: not affected

Compound: IPALDSLKPANEDQKIGIEI [IPAL peptide]
- influence on cell death caused by SOD1 mutant genes ([1]; 10 μM IPAL peptide): did not influence the cell death caused by the SOD1 mutant genes
- influence on cell death at the control level ([1]; 10 μM IPAL peptide itself, pEF-BOS): did not influence the cell death at the control level
- effect on inhibitory activity of ADNF against cell death caused by SOD1 mutant genes ([1]; 10 μM IPAL peptide, 100 fM ADNF, 72 hours): did not inhibit the inhibitory activity of ADNF
- effect on protective effect of ADNF on cell death induced by amyloid β ([2]; Zamostiano et al. 1999): inhibit the protective effect of ADNF

Compound: ALLRSIPA [ADNF8, ADNF which lost one N-terminal amino acid residue]
- effectiveness relative to ADNF (fold less) ([1]; inhibition of neuronal cell death caused by SOD1 mutant genes): 100 fold
- inhibition of cell death caused by G93R-SOD1 [3]: completely inhibited cell death
- effect against neuronal cell death caused by amyloid β or TTX ([2]; Brenneman et al. 1998): totally ineffective

Compound: COc1ccc(S(=O)(=O)Nc2ccccc2CN(C)C/C=C/c2ccc(Cl)cc2)cc1 [KN92]
- influence on ADNF activity ([1]; 5 μM KN92, 100 fM ADNF): did not influence ADNF activity
- protein expression of SOD1 mutant detected by immunoblot (SOD1 proteins): not affected

Compound: COc1cccc(-c2cc(=O)c3ccccc3o2)c1N [PD98059]
- effect of kinase inhibitor on neuroprotective effect of ADNF [1]: not affected

Compound: O=c1c(-c2ccc(O)cc2)coc2cc(O)cc(O)c12 [genistein]
- effect of kinase inhibitor on neuroprotective effect of ADNF [1]: inhibited

Compound: S14G Humanin (MAPRGFSCLLLLTGEIDLPVKRRA; Humanin; UniProt Q8IVG9 1-24, looked up, variant S14G) [HNG, comparison peptide reported to prevent Alzheimer's disease-associated neuronal cell death]
- cell mortality induced by SOD1 mutant genes ([1]; 10 nM HNG, A4T-, G85R-, G93R-SOD1, 72 hours): could not reduce the cell death induced by the SOD1 mutant genes
- neuronal cell death caused by some Alzheimer's disease-associated disorders ([2]; Hashimoto et al.): prevent neuronal cell death
- neuronal cell death induced by SOD1 mutant genes [4]: fail to prevent neuronal cell death
